Consider 10 molecules from patent US10202371B2, “Oxazolidin-2-one-pyrimidine derivatives and the use thereof as phosphatidylinositol-3-kinase inhibitors” (Novartis AG, priority 2012, dated 2019).

pIC50: −log10 of the molar value.

Experiment [1] deals with mTOR (TSC1-/- MEFs cells) (Mus musculus (Mouse), UniProt Q9JLN9). The experiment is described as follows: Cellular assay mTOR, phospho-T389 S6K1 SureFire in TSC1-/- MEF cells. The class given is cell-based. As to conditions: read-out: mTOR TS6K(T389)_TSC1ko/ IC50. The source says: A cell based assay (384-well format) was developed for determination of compound effects on cellular mTOR activity in MEF (mouse embryo fibrobrasts) cells derived from mice lacking TSC1 (Tuberosclerosis Complex1) a potent suppressor of mTOR activity. Due to lack of TSC1, mTOR is constitutively activated resulting in permanent phoshorylation of Thr 389 of S6 kinase 1 (S6K1) which is one of the downstream targets of mTOR.
Using a SureFire Kit that enables to determine the phosphorylation of Thr389 on the S6K1 an assay was developed, validated and implemented in the Alpha-Screen format that allows the quantitative determination of phospho-T389 of S6K1 in cell lysates. […] These were in agreement with those values obtained with the biochemical mTOR ATP-binding assay enabling a quantitative comparison of potency of mTOR inhibitors.
TSC1−/− MEFs cells (Kwiatkowski, D. J., Zhang, H., Bandura, J. L., Heiberger, K. M., Glogauer, M., el-Hashemite, N., and Onda, H. (2002) Hum. Mol. Genet. 11, 525-534) were cultured in DMEM high glucose medium supplemented with 10% FBS (Invitrogen), 2 mM Glutamine and 1% (w/v) Penicillin/Streptomycin at 37° C., 5% CO2.
The SureFire kit for determination of P70S6kinase phosphorylation was purchased from Perkin Elmer (p70S6K p-T389, #TGR70S50K) and the assay was performed according to the instructions of the supplier and according to the generic method for SureFire assays. Shortly, 5 μL cell lysate per well were transferred to 384-well white proxy-plates (for luminescent readout) and mixed with […] and […] (final volume: 12 μL). After 3 h incubation in the dark at RT luminescence was read with the Envision Reader (Perkin Elmer). Untreated cells were used as control (high control) and cells treated with 3 μM BEZ235 were used as low control. The assay window between the signals obtained for the high and the low controls were defined as 100% and compound effects were expressed as percent inhibition. IC50 values were calculated from the dose response curves by graphical extrapolation.

In experiment [2] the target is human PI3Kdelta p110 catalytic subunit (Rat-1 cells) (Homo sapiens (Human), UniProt O00329). The experiment is described as follows: Cellular assay PI3Kdelta, p-Akt(S473) SureFire in Rat-1_PI3Kdelta cells. The class given is cell-based. The note with it: p-AKT(Ser473), 1 h treatment; read-out: Rat1-PI3Kd/IC50. The source says: AlphaScreen (Amplified Luminescent Proximity Homogeneous Assay, ALPHA, Perkin Elmer) is a non-radioactive bead-based proximity assay technology to study biomolecular interactions in a homogenous microtiter plate format. The brand name SureFire denotes AlphaScreen assays that are adapted to quantify the phosphorylation of endogenous cellular proteins in cell lysates, by using matched antibody pairs, which consist of an anti-phospho-kinase and an anti-kinase antibody. The assay allows characterization of kinase signaling in cells as well as measurement of kinase inhibitor effects. The AlphaScreen technology provides several advantages over standard assay techniques such as ELISA, as it avoids time-consuming washing procedures and reduces plate handling. Furthermore, it is miniaturizable at least to a 384-well format and provides sensitivity down to the femtomolar range, dependent on the affinity of the antibodies included in the individual AlphaScreen SureFire assay kit. High sensitivity is reached by an intrinsic amplification mechanism, which involves production of singlet oxygen molecules. SureFire assay kits are commercially available for specific targets and include pairs of validated antibodies (PerkinElmer). This report describes common procedures applied for AlphaScreen SureFire assays and respective semi-automated steps for routine kinase inhibitor profiling in cell-based assays.
human PI3Kdelta p110 catalytic subunit (Rat-1 cells), sequence (O00329 whole entry): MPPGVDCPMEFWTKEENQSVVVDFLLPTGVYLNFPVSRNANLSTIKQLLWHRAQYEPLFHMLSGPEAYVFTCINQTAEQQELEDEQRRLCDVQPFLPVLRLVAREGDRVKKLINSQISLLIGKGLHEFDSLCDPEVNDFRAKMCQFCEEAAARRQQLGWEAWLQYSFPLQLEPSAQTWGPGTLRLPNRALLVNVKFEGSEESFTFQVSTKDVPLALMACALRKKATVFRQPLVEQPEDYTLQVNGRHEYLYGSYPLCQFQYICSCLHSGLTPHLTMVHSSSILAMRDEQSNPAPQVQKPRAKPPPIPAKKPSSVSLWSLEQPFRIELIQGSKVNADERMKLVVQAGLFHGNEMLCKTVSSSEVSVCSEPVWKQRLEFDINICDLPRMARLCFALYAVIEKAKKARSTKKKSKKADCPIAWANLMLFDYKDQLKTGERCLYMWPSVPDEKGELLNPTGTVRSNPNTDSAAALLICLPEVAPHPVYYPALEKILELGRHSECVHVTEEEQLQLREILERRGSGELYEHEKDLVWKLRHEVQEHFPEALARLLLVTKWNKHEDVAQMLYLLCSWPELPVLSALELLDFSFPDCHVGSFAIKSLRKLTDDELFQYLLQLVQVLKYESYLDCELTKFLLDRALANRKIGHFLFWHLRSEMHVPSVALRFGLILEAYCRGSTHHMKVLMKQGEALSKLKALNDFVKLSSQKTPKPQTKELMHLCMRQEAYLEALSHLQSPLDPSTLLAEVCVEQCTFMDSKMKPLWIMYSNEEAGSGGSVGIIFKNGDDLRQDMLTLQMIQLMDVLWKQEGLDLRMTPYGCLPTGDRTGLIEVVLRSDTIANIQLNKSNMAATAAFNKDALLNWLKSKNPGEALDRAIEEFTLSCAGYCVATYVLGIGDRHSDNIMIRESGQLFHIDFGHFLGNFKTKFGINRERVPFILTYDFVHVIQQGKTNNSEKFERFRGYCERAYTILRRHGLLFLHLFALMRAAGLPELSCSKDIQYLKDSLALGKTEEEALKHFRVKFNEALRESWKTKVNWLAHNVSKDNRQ
human PI3Kdelta p110 catalytic subunit (Rat-1 cells), sequence (Q63787 whole entry partner): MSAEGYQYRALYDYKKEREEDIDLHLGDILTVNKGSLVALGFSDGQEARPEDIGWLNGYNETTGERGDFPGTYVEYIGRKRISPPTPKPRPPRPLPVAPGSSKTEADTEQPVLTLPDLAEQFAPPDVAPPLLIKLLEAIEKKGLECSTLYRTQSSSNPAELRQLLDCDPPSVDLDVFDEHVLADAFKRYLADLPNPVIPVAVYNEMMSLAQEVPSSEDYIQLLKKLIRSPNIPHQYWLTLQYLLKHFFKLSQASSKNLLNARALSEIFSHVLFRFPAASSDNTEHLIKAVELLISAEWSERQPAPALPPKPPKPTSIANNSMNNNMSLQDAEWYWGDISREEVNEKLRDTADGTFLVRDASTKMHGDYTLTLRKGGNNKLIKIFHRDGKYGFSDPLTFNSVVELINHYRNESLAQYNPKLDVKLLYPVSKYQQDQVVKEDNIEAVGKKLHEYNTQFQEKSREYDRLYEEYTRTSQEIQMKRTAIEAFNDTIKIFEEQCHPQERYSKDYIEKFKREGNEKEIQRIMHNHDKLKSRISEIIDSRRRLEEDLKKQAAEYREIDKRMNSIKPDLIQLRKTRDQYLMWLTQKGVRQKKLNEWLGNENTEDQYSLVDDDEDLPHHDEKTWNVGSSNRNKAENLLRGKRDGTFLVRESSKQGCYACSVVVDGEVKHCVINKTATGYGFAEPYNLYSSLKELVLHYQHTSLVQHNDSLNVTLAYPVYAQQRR
The Rat-1 cell lines stably overexpressing activated PI3K class I isoforms Rat-1 pBABEpuro Myr-HA-hp110 delta (Rat-1_PI3Kdelta) and Rat-1 pBABEpuro Myr-HA-hp110alpha (Rat-1_PI3Kalpha) and Rat-1 pBABEpuro Myr-HA-hp110 beta (Rat-1_PI3beta) were prepared as described (Maira S M, Stauffer F, Brueggen J, Furet P, Schnell C, Fritsch C, Brachmann S, Chène P, de Pover A, Schoemaker K, Fabbro D, Gabriel D, Simonen M, Murphy L, Finan P, Sellers W, Garcia-Echeverria C (2008), Mol Cancer Ther. 7:1851-63 and Maira S M, Pecchi S, Brueggen J, Huh K, Schnell C, Fritsch C, Nagel T, Wiesmann M, Brachmann S, Dorsch M, Chène P, Schoemaker K, De Pover A, Menezes D, Fabbro D, Sellers W, Garcia-Echeverria C, Voliva CF (2011), Mol. Cancer Ther., accepted). All cell lines were cultivated in complete growth medium (DMEM high glucose, 10% (v/v) fetal bovine serum, 1% (v/v) MEM NEAA, 10 mM HEPES, 2 mM L-glutamine, puromycin (10 μg/mL for Rat-1_PI3Kdelta and Rat-1_PI3Kalpha, 4 ug/mL for Rat-1_PI3beta), 1% (v/v) Pen/Strep) to 90% confluency at 37° C./5% CO2/90% humidity in a humidified CO2 incubator and were split twice a week.
The following materials were used for p-AKT(5473) detection in Rat-1 cell lysates: Dulbecco's modified Eagle's medium (DMEM) high glucose (Gibco Invitrogen, Basel, Switzerland, Cat. No. 41965), Heat Inactivated Fetal Bovine Serum, Qualified (HI FBS; Gibco Invitrogen, Basel, Switzerland, Lot. No. 16140), MEM non essential amino acids (NEAA; Gibco Invitrogen, Basel, Switzerland, Cat. No. 11140), HEPES (Gibco Invitrogen, Basel, Switzerland, Cat. No. 15630), Penicillin/Streptomycin (Pen/Strep, 100x; Gibco Invitrogen, Basel, Switzerland, Cat. No. 15140-122), L-Glutamine (Gibco Invitrogen, Basel, Switzerland, Cat. No. 25030), Puromycin (Sigma Aldrich, Buchs, Switzerland, Cat. No. P9620), DMSO (MERCK, Dietikon, Switzerland, Cat. No. 8.02912.2500), H2O, MilliQ-H2O unless otherwise stated (MILLIPORE QGARDOOR1, Millipore, Zug, Switzerland), Bovine serum albumine (BSA; Sigma Aldrich, Buchs, Switzerland Cat. No. A8412), SureFire p-Akt ½ (Ser473) Assay Kit (PerkinElmer, Schwerzenbach, Switzerland, Cat. No. TGRAS50K).
The p-Akt(5473) SureFire assay measures the phosphorylation of endogenous cellular Akt ½ at Ser473 in cell lysates. Using Rat-1 cells stably expressing myr-HA-tagged versions of the human PI3Kdelta, PI3Kalpha, or PI3Kbeta p110 catalytic subunit isoforms, the assay was developed as a two-plate protocol in a 384-well format.

Turning to `C[C@H]1[C@H](c2nccs2)OC(=O)N1c1cc(-c2cnc(N)nc2C(F)(F)F)nc(N2CCOCC2)n1` [Example 1, (4S,5R)-3-(2′-Amino-2-morpholin-4-yl-4′-trifluoromethyl-[4,5′]bipyrimidinyl-6-yl)-4-methyl-5-thiazol-2-yl-oxazolidin-2-one], the pIC50 in experiment [1] was 6.61.

`COc1ccc([C@@H]2OC(=O)N(c3cc(-c4cnc(N)nc4C(F)(F)F)nc(N4CCOCC4)n3)[C@H]2CO)cc1` [Example 3, (4S,5S)-3-(2′-Amino-2-morpholino-4′-(trifluoromethyl)-[4,5′-bipyrimidin]-6-yl)-4-(hydroxymethyl)-5-(4-methoxyphenyl)oxazolidin-2-one]: the values for the pIC50 in experiment [2] and in experiment [1] were 8.22 and 6.80, respectively.

Consider `C[C@H]1[C@H](c2ccccc2)OC(=O)N1c1cc(-c2cnc(N)nc2C(F)(F)F)nc(N2CCOCC2)n1` [Example 5], for which the pIC50 in experiment [2] was 6.92; in experiment [1], 6.43.

In the case of `CC[C@H]1[C@H](c2nccs2)OC(=O)N1c1cc(-c2cnc(N)nc2C(F)(F)F)nc(N2CCOCC2)n1` [Example 7], in experiment [2], the pIC50 is 6.91.

For `CC1C(c2cccnc2)OC(=O)N1c1cc(-c2cnc(N)nc2C(F)(F)F)nc(N2CCOCC2)n1` (centres unmarked) [Example 9], the pIC50 in experiment [2] was 7.96.

As to `Nc1ncc(-c2cc(N3C(=O)O[C@@H](c4ccccc4)[C@@H]3CO)nc(N3CCOCC3)n2)c(C(F)(F)F)n1` [Example 10], the pIC50 in experiment [2] is 7.66; in experiment [1] it was 6.66.

For `C[C@H]1[C@@H](c2nccs2)OC(=O)N1c1cc(-c2cnc(N)nc2C(F)(F)F)nc(N2CCOCC2)n1` [Example 11], the pIC50 in experiment [1] is 6.13.

`COCCOc1ccc([C@@H]2OC(=O)N(c3cc(-c4cnc(N)nc4C(F)(F)F)nc(N4CCOCC4)n3)[C@H]2CO)cc1` [Example 12]: the pIC50 in experiment [2] is 8.40; in experiment [1] it was 6.56.

With `Nc1ncc(-c2cc(N3C(=O)O[C@@H](c4ccc(OCCO)cc4)[C@@H]3CO)nc(N3CCOCC3)n2)c(C(F)(F)F)n1` [Example 13], the pIC50 in experiment [1] was 5.97.

With `Nc1ncc(-c2cc(N3C(=O)O[C@@H](c4ccc(OCCCO)cc4)[C@@H]3CO)nc(N3CCOCC3)n2)c(C(F)(F)F)n1` [Example 14], the pIC50 in experiment [1] is 6.14.
